This test relates to cellular p-ERK in HCT116 human colorectal carcinoma / A375 human malignant melanoma cell lines. Put plainly: Phospho-ERK cell-based assay (ELISA), Example 4. The settings on record: in either one of the cell lines (HCT116, A375), 2 h or 24 h exposure. On the procedure:
Example 4 Phospho-ERK Cell-Based Assay
Compounds are tested in a cell-based phospho-ERK ELISA using the following cell lines:
HCT116 human colorectal carcinoma (ATCC)
A375 human malignant melanoma (ATCC)
Both cell lines are maintained in DMEM/F12 (1:1) media (Gibco) supplemented with 10% FCS at 37° C. in a 5% CO2 humidified incubator.
Cells are seeded in 96-well plates at 2,000 cells/well and after 24 h they are exposed to different concentrations of compounds in 0.83% DMSO. Cells are grown for a further 2 h or 24 h, fixed with formaldehyde (2% final) and permeabilised with methanol. Following blocking with TBST-3% BSA, fixed cells are incubated with primary antibody (anti-phospho ERK from rabbit) over-night at 4° C. Cells are incubated with Propidium Iodide (DNA fluorescent dye) and detection of cellular p-ERK is performed using an anti-rabbit secondary antibody conjugated to the fluorescent Alexa Fluor 488 dye (Molecular probes). The fluorescence is analysed using the Acumen Explorer (TTP Labtech), a laser-scanning microplate cytometer, and the Alexa Fluor 488 signal is normalised to the PI signal (proportional to cell number).
The EC50 is defined as the concentration at which a given compound achieves a signal half way between the baseline and the maximum response. EC50 values are calculated using the XLfit software package (version 2.0.5).
A general note: In an ELISA, binding on a coated surface is turned into a signal by an enzyme label.
On to `O=C(c1oc2ccncc2c1Nc1ccc(I)cc1F)N1C[C@@H](O)[C@@H](O)C1` [Example 73, (3-(2-fluoro-4-iodophenylamino)furo[3,2-c]pyridin-2-yl)((3S,4R)-3,4-dihydroxypyrrolidin-1-yl)methanone], for which the EC50 (as a rule, the concentration that produces a half-maximal response) is below 10 µM.
The result for `N[C@@H]1CCN(C(=O)c2oc3ccncc3c2Nc2ccc(I)cc2F)C1` [Example 74, (3-(2-fluoro-4-iodophenylamino)furo[3,2-c]pyridin-2-yl)((R)-3-aminopyrrolidin-1-yl)methanone] reads below 10 µM.
The value for `C[C@@H](CO)NC(=O)c1oc2ccncc2c1Nc1ccc(I)cc1F` [Example 76, 3-(2-fluoro-4-iodophenylamino)-N-((S)-1-hydroxypropan-2-yl)furo[3,2-c]pyridine-2-carboxamide] was below 10 µM; that for `O=C(c1oc2ccncc2c1Nc1ccc(I)cc1F)N1CCC[C@H]1CO` [Example 79, (3-(2-fluoro-4-iodophenylamino)furo[3,2-c]pyridin-2-yl)((S)-2-(hydroxymethyl)pyrrolidin-1-yl)methanone] was below 10 µM.
The value for `CN(CCO)C(=O)c1oc2ccncc2c1Nc1ccc(I)cc1F` [Example 81, 3-(2-fluoro-4-iodophenylamino)-N-(2-hydroxyethyl)-N-methylfuro[3,2-c]pyridine-2-carboxamide] was below 10 µM.
Consider `O=C(NCCO)c1oc2ccncc2c1Nc1ccc(I)cc1F` [Example 82, 3-(2-fluoro-4-iodophenylamino)-N-(2-hydroxyethyl)furo[3,2-c]pyridine-2-carboxamide], for which the EC50 is below 10 µM.
The value for `CN(C)C(=O)c1oc2ccncc2c1Nc1ccc(I)cc1F` [Example 83, 3-(2-fluoro-4-iodophenylamino)-N,N-dimethylfuro[3,2-c]pyridine-2-carboxamide] was below 10 µM.
The result for `O=C(NCC(O)CO)c1oc2ccncc2c1Nc1ccc(I)cc1F` (stereo not drawn) [Example 84, 3-(2-fluoro-4-iodophenylamino)-N-(2,3-dihydroxypropyl)furo[3,2-c]pyridine-2-carboxamide] reads below 10 µM; that for `O=C(c1oc2ccncc2c1Nc1ccc(I)cc1F)N1CCC[C@@H]1CO` [Example 87, (3-(2-fluoro-4-iodophenylamino)furo[3,2-c]pyridin-2-yl)((R)-2-(hydroxylmethyl)pyrrolidin-1-yl)methanone], below 10 µM.
For `CNC(=O)c1oc2ccncc2c1Nc1ccc(I)cc1F` [Example 91, 3-(2-fluoro-4-iodophenylamino)-N-methylfuro[3,2-c]pyridine-2-carboxamide], the EC50 is below 10 µM.
Take `O=C(NCC[C@H](O)CO)c1oc2ccncc2c1Nc1ccc(I)cc1F` [Example 95, 3-(2-fluoro-4-iodophenylamino)-N-((S)-3,4-dihydroxybutyl)furo[3,2-c]pyridine-2-carboxamide]: the concentration giving a half-maximal response (EC50) was below 10 µM.
For the compound `CC(C)(C)ONC(=O)c1oc2ccncc2c1Nc1ccc(I)cc1F` [Example 99, (2-Fluoro-4-iodo-phenylamino)-N-tert-butoxyfuro[3,2-c]pyridine-2-carboxamide], the EC50 is below 10 µM.
On to `O=C(NOc1ccccc1)c1oc2ccncc2c1Nc1ccc(I)cc1F` [Example 111, 3-(2-Fluoro-4-iodo-phenylamino)-N-phenyloxyfuro[3,2-c]pyridine-2-carboxamide], for which the EC50 is below 10 µM.
Regarding `CC(C)(CO)ONC(=O)c1oc2ccncc2c1Nc1ccc(I)cc1F` [Example 113, N-(1-hydroxy-2-methylpropan-2-yloxy)-3-(2-Fluoro-4-iodo-phenylamino)furo[3,2-c]pyridine-2-carboxamide], the concentration giving a half-maximal response (EC50) is below 10 µM.
The result for `C[C@@H](O)CONC(=O)c1oc2ccncc2c1Nc1ccc(I)cc1F` [Example 117, 3-(2-Fluoro-4-iodo-phenylamino)-furo[3,2-c]pyridine-2-carboxylic acid ((R)-2-hydroxy-propoxy)-amide] reads below 10 µM.
